Results published in PubChem BioAssay (NCI).
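Dose response: 5 concentrations. Exposure: 48 h. Format: 96-well plates. Endpoint: linear interpolation; highest concentration if not reached. Abbreviation: GI50, concentration required for 50% inhibition of growth. At the TGI there is no net growth.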

How the values were obtained:
Test in all cases: growth of human tumour cells (NCI), 48 h
[1] = system: 786-0 renal
[2] = system: A498 renal
[3] = system: A549 NSCLC
[4] = system: ACHN renal
[5] = system: BT-549 breast
[6] = system: CAKI-1 renal
[7] = system: CCRF-CEM leukemia
[8] = system: COLO 205 colon
[9] = system: DU-145 prostate
[10] = system: EKVX NSCLC
[11] = system: HCC-2998 colon
[12] = system: HCT-116 colon
[13] = system: HCT-15 colon
[14] = system: HL-60(TB) leukemia
[15] = system: HOP-62 NSCLC
[16] = system: HOP-92 NSCLC
[17] = system: HS 578T breast
[18] = system: HT29 colon
[19] = system: IGROV1 ovarian
[20] = system: K-562 leukemia
[21] = system: KM12 colon
[22] = system: LOX IMVI melanoma
[23] = system: M14 melanoma
[24] = system: MALME-3M melanoma
[25] = system: MCF7 breast
[26] = system: MDA-MB-231 breast
[27] = system: MDA-MB-435
[28] = system: MOLT-4 leukemia
[29] = system: NCI-H226 lung
[30] = system: NCI-H23 lung
[31] = system: NCI-H460 lung
[32] = system: NCI-H522 lung
[33] = system: NCI/ADR-RES ovarian
[34] = system: OVCAR-3 ovarian
[35] = system: OVCAR-4 ovarian
[36] = system: OVCAR-5 ovarian
[37] = system: OVCAR-8 ovarian
[38] = system: PC-3 prostate
[39] = system: RPMI-8226 leukemia
[40] = system: RXF 393 renal
[41] = system: SF-268 CNS
[42] = system: SF-295 CNS
[43] = system: SF-539 CNS
[44] = system: SK-MEL-2 melanoma
[45] = system: SK-MEL-28 melanoma
[46] = system: SK-MEL-5 melanoma
[47] = system: SK-OV-3 ovarian
[48] = system: SN12C renal
[49] = system: SNB-19 CNS
[50] = system: SNB-75 CNS
[51] = system: SW-620 colon
[52] = system: T-47D breast
[53] = system: TK-10 renal
[54] = system: U251 CNS
[55] = system: UACC-257 melanoma
[56] = system: UACC-62 melanoma
[57] = system: UO-31 renal

O=C(CCCBr)Nc1ccccc1C#C/C=C\C#Cc1ccccc1C(F)(F)F
GI50 [1]: 13.5 µM | TGI [1]: > 50 µM | GI50 [2]: 15.8 µM | TGI [2]: 47.3 µM | GI50 [3]: 19.3 µM | TGI [3]: > 50 µM | GI50 [4]: 26.8 µM | TGI [4]: > 50 µM | GI50 [5]: 19.8 µM | TGI [5]: > 50 µM | GI50 [6]: 15.3 µM | TGI [6]: > 50 µM | GI50 [7]: 15 µM | TGI [7]: 35.7 µM | GI50 [8]: > 50 µM | TGI [8]: > 50 µM | GI50 [9]: > 50 µM | TGI [9]: > 50 µM | GI50 [10]: 39.1 µM | TGI [10]: > 50 µM | GI50 [11]: 7.25 µM | TGI [11]: 20.3 µM | GI50 [12]: 10.9 µM | TGI [12]: 43.7 µM | GI50 [13]: 20.6 µM | TGI [13]: > 50 µM | GI50 [14]: 16.1 µM | TGI [14]: 45 µM | GI50 [15]: 4.76 µM | TGI [15]: 20.6 µM | GI50 [16]: 19.7 µM | TGI [16]: > 50 µM | GI50 [17]: 36.5 µM | TGI [17]: > 50 µM | GI50 [18]: 8.56 µM | TGI [18]: 20.8 µM | GI50 [19]: 6.75 µM | TGI [19]: 26.9 µM | GI50 [20]: 21.6 µM | TGI [20]: > 50 µM | GI50 [21]: 17.4 µM | TGI [21]: > 50 µM | GI50 [22]: 22.6 µM | TGI [22]: > 50 µM | GI50 [23]: 12.1 µM | TGI [23]: 29.5 µM | GI50 [24]: 18.7 µM | TGI [24]: > 50 µM | GI50 [25]: 26.6 µM | TGI [25]: > 50 µM | GI50 [26]: 12.8 µM | TGI [26]: 33.4 µM | GI50 [27]: 13.5 µM | TGI [27]: 32.6 µM | GI50 [28]: 16.3 µM | TGI [28]: > 50 µM | GI50 [29]: 13.9 µM | TGI [29]: 44.8 µM | GI50 [30]: 16.2 µM | TGI [30]: > 50 µM | GI50 [31]: 19.2 µM | TGI [31]: > 50 µM | GI50 [32]: 15.5 µM | TGI [32]: > 50 µM | GI50 [33]: 11.9 µM | TGI [33]: 29.2 µM | GI50 [34]: 13.3 µM | TGI [34]: 48.9 µM | GI50 [35]: 10.1 µM | TGI [35]: 31.9 µM | GI50 [36]: > 50 µM | TGI [36]: > 50 µM | GI50 [37]: 24.2 µM | TGI [37]: > 50 µM | GI50 [38]: 23.1 µM | TGI [38]: > 50 µM | GI50 [39]: 14.2 µM | TGI [39]: > 50 µM | GI50 [40]: 8.35 µM | TGI [40]: 28.4 µM | GI50 [41]: 35.3 µM | TGI [41]: > 50 µM | GI50 [42]: 27.6 µM | TGI [42]: > 50 µM | GI50 [43]: 21.2 µM | TGI [43]: > 50 µM | GI50 [44]: 27.8 µM | TGI [44]: > 50 µM | GI50 [45]: 10.3 µM | TGI [45]: 25.7 µM | GI50 [46]: 38.3 µM | TGI [46]: > 50 µM | GI50 [47]: > 50 µM | TGI [47]: > 50 µM | GI50 [48]: 10.6 µM | TGI [48]: 29.9 µM | GI50 [49]: > 50 µM | TGI [49]: > 50 µM | GI50 [50]: 9.07 µM | TGI [50]: 40.6 µM | GI50 [51]: 22.5 µM | TGI [51]: > 50 µM | GI50 [52]: > 50 µM | TGI [52]: > 50 µM | GI50 [53]: 38.8 µM | TGI [53]: > 50 µM | GI50 [54]: 11.3 µM | TGI [54]: 31.1 µM | GI50 [55]: 19.1 µM | TGI [55]: > 50 µM | GI50 [56]: 14.1 µM | TGI [56]: > 50 µM | GI50 [57]: 20.2 µM | TGI [57]: > 50 µM
